pIC50: −log10 of the molar value.
Experiments:
human TRPA1 = human TRPA1 (Homo sapiens (Human), UniProt O75762); test: 45Calcium uptake assay, AITC induced, human TRPA1 expressing CHO cells; type: cell-based; conditions: AITC 30 micromolar, read-out: IC50 values hTRPA1
Protocol: As contemplated herein, the IC50 value is measured by the following method. The inhibition of TRPA1 receptor activation is measured as inhibition of allylisothiocyanate (AITC) induced cellular uptake of radioactive calcium. Test solution of test compound is prepared in a suitable solvent using appropriate method. Human TRPA1 expressing CHO cells are grown in suitable medium. Cells are treated with test compounds followed by addition of AITC. Cells are washed and lysed. Radioactivity in the lysate is measured in Packard Top count after addition of liquid scintillant. The concentration response curves for compounds are plotted as a % of maximal response obtained in the absence of test antagonist, and the IC50 values are calculated from such concentration response curve by nonlinear regression analysis using GraphPad PRISM software.
The illustrative TRPA1 antagonists of the present invention were screened for TRPA1 activity according to a modified procedure described in Tóth, A. et al., Life Sciences 2003, 73, 487-498. The screening of the compounds can be carried out by other methods and procedures known to persons skilled in the art.
Screening for TRPA1 Antagonist Using the 45Calcium Uptake Assay:
The inhibition of TRPA1 receptor activation was measured as inhibition of allylisothiocyanate (AITC) induced cellular uptake of radioactive calcium. Test compounds were dissolved in DMSO to prepare 10 mM stock solution and then diluted using plain medium with 0.1% BSA and 1.8 mM CaCl2 to get desired concentration. Final concentration of DMSO in the reaction was 0.5% (v/v). Human TRPA1 expressing CHO cells were grown in F-12 DMEM medium with 10% FBS, 1% penicillin-streptomycin solution, and 400 μg/ml of G-418. Cells were seeded 24 h prior to the assay in 96 well plates so as to get ˜50,000 cells per well on the day of experiment. Cells were treated with test compounds for 10 min followed by addition of AITC at a final concentration of 30 micromolar and 5 μCi/ml 45Ca+2 for 3 min at 25° C. Cells were washed and lysed using buffer containing 1% Triton X-100, 0.1% deoxycholate and 0.1% SDS. Radioactivity in the lysate was measured in Packard Top count after addition of liquid scintillant.
Concentration response curves were plotted as a % of maximal response obtained in the absence of test antagonist. IC50 value was calculated from concentration response curve by nonlinear regression analysis using GraphPad PRISM software.

human TRPV1 = human TRPV1 (Homo sapiens (Human), UniProt Q8NER1); test: Radiometric calcium selectivity assay, CHO cells expressing human TRPV1 (capsaicin); type: cell-based; conditions: read-out: IC50 values hTRPV1
Chain of human TRPV1 (Q8NER1 whole entry): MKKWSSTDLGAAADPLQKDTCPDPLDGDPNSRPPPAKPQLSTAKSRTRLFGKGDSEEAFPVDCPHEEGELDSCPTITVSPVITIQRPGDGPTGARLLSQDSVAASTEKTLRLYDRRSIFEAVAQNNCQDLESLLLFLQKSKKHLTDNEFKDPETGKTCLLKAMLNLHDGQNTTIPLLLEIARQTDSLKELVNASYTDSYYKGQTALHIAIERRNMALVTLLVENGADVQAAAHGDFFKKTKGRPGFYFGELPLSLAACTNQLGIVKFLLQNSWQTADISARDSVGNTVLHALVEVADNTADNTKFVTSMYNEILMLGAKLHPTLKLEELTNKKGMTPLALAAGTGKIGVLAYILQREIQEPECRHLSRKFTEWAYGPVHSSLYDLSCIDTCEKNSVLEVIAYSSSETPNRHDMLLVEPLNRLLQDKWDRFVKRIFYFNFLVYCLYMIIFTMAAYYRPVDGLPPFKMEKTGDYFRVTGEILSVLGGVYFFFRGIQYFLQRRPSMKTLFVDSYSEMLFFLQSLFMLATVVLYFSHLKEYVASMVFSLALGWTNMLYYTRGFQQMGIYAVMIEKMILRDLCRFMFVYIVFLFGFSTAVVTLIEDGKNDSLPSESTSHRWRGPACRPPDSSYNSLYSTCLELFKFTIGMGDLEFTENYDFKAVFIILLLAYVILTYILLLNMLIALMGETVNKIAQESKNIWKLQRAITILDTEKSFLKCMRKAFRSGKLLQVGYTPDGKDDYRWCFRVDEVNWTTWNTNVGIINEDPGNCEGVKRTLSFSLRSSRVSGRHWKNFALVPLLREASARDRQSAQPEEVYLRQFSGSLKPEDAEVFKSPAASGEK
Protocol: (§1) For selectivity screening, CHO cells stably expressing human TRPV1, human TRPV3, human TRPV4, or human TRPM8 were generated in-house and maintained in DMEM F-12 supplemented with 10% FBS and G418. All the cell types were cultured at 37° C. in humidified air containing 5% CO2. Radiometric calcium assay was performed as described above with some minor modifications. Assay was carried out in total volume of 200 μl at 30° C. (for TRPV1), 32° C. (for TRPV3) and 25° C. (for TRPV4 and TRPM8). Agonists used for selectivity screening of the different TRPs are: Capsaicin for TRPV1,2-aminoethoxydiphenyl borate for TRPV3, 4α-phorbol 12,13-didecanoate for TRPV4 and Icilin for TRPM8. After 2-5 minutes of agonist treatment, drug was washed and lysed in lysis buffer as mentioned above. Radioactivity in the lysate was measured in Packard Top count after addition of liquid scintillant.

human TRPV3 = human TRPV3 (Homo sapiens (Human), UniProt Q8NET8); test: Radiometric calcium selectivity assay, CHO cells expressing human TRPV3 (2-aminoethoxydiphenyl borate); type: cell-based; conditions: read-out: IC50 values hTRPV3
Chain of human TRPV3 (Q8NET8 whole entry): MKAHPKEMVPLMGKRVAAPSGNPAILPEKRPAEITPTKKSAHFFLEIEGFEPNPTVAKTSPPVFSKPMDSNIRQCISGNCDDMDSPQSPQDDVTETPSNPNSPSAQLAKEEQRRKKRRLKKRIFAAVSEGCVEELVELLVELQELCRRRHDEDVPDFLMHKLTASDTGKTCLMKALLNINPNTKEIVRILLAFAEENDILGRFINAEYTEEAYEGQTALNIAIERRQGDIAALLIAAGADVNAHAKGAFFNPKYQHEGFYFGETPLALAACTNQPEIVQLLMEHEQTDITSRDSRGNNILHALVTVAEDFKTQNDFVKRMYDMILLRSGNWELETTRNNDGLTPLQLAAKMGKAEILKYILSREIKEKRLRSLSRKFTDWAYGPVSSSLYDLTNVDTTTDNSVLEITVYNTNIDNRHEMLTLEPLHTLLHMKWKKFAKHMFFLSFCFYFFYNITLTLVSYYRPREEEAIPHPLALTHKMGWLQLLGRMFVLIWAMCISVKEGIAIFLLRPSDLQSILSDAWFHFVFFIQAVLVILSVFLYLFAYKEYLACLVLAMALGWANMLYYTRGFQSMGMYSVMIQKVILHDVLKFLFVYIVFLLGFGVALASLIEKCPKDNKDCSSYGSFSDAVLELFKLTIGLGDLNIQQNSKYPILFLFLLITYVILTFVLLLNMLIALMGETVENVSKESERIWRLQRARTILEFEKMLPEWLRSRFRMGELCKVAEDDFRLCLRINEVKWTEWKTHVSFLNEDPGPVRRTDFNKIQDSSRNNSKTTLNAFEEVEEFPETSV
Protocol: as §1

human TRPV4 = human TRPV4 (Homo sapiens (Human), UniProt Q9HBA0); test: Radiometric calcium selectivity assay, CHO cells expressing human TRPV4 (4α-phorbol 12,13-didecanoate); type: cell-based; conditions: read-out: IC50 values hTRPV4
Chain of human TRPV4 (Q9HBA0 whole entry): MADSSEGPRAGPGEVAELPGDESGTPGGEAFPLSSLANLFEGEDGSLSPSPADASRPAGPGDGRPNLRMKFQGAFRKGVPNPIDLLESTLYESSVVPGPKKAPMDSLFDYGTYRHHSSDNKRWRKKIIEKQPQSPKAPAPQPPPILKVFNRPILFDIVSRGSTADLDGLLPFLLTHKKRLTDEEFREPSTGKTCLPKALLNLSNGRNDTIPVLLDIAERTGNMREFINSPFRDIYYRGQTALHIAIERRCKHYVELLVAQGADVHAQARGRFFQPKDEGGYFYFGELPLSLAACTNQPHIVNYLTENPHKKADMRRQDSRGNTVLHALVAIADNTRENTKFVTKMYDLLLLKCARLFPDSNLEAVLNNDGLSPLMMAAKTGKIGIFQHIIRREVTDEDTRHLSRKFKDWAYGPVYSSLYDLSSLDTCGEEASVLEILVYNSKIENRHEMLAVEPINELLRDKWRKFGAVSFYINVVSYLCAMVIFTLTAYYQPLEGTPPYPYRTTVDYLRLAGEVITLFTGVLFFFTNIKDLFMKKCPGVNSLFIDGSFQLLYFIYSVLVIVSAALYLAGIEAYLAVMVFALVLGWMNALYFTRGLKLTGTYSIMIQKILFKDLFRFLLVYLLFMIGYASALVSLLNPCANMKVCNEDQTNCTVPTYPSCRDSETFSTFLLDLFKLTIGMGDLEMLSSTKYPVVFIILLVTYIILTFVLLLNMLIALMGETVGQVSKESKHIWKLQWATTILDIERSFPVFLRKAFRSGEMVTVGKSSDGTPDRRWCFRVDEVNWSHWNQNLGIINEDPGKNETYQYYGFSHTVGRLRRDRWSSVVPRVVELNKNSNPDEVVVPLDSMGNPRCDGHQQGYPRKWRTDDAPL
Protocol: as §1

human TRPM8 = human TRPM8 (Homo sapiens (Human), UniProt Q7Z2W7); test: Radiometric calcium selectivity assay, CHO cells expressing human TRPM8 (icilin); type: cell-based; conditions: read-out: IC50 values hTRPM8
Chain of human TRPM8 (Q7Z2W7 whole entry): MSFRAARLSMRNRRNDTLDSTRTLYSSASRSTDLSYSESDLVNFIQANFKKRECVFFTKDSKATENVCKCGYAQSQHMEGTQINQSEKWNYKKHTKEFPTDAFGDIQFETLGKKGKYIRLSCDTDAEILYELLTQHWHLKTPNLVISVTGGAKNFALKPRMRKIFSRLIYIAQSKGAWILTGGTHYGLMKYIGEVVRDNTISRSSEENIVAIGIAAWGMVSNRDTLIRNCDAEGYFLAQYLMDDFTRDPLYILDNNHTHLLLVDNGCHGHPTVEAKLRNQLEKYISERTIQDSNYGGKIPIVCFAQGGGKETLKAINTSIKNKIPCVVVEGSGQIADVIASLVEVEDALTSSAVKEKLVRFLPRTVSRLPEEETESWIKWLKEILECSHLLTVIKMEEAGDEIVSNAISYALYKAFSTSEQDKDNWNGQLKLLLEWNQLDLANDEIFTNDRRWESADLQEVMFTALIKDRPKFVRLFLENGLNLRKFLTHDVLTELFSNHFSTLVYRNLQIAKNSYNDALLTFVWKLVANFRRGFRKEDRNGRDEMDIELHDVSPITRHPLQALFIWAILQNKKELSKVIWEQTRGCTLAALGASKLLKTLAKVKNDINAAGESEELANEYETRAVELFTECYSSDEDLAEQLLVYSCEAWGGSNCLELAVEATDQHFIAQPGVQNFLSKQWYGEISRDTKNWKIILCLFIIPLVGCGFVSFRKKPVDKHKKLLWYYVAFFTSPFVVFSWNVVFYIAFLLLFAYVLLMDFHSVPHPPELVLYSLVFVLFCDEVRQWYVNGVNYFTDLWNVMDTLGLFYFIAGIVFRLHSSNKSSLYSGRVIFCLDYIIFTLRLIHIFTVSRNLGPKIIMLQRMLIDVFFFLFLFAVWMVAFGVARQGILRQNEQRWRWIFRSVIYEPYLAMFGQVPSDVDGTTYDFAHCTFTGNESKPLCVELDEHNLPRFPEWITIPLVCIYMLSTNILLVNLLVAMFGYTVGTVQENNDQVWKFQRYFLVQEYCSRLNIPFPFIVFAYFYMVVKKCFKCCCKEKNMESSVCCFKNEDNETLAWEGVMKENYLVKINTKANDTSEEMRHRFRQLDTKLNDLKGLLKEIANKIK
Protocol: as §1

[1] = test system: ovalbumin sensitized Brown Norway rats; test: Ovalbumin asthma model in Brown Norway rats (Example 5); type: in vivo, rat; conditions: i.t. 1 hour before ovalbumin challenge, BAL 48 hours; dose dependent
Protocol: Male BN rats were sensitized subcutaneously (s.c.) on day 0, 14 and 21 with 0.5 ml solution containing 20 μg/ml ovalbumin (Ova) and 40 mg/ml aluminum hydroxide. Simultaneously the animals were injected intraperitoneally (i.p.) with 0.25 ml of B. pertussis vaccine/rat containing 4×10^8 heat killed bacilli/ml. The rats were challenged with 1% aerosolized ovalbumin on Day 28 following sensitization.
Test compounds were triturated and volume was made up with Normal Saline (0.9% NaCl). Animals were administered TRPA1 antagonists (Compound 52, Compound 73, Compound 84, Compound 90 and Compound 92) intra-tracheally (i.t.) 1 hour and fluticasone 24 hours and 1 hour before ovalbumin challenge. Animals were sacrificed 48 hours after ovalbumin challenge.
BAL was performed at approximately 48 hours after ovalbumin challenge and the pooled BAL was used to determined total number of cells and for cell differential study (according to Example 2).
The total number of eosinophils in each BAL sample and % inhibition of eosinophils were calculated according to Example 3
The data was statistically evaluated by ANOVA followed by Dunnett's multiple comparisons test.

Chain of human TRPA1 (O75762 whole entry): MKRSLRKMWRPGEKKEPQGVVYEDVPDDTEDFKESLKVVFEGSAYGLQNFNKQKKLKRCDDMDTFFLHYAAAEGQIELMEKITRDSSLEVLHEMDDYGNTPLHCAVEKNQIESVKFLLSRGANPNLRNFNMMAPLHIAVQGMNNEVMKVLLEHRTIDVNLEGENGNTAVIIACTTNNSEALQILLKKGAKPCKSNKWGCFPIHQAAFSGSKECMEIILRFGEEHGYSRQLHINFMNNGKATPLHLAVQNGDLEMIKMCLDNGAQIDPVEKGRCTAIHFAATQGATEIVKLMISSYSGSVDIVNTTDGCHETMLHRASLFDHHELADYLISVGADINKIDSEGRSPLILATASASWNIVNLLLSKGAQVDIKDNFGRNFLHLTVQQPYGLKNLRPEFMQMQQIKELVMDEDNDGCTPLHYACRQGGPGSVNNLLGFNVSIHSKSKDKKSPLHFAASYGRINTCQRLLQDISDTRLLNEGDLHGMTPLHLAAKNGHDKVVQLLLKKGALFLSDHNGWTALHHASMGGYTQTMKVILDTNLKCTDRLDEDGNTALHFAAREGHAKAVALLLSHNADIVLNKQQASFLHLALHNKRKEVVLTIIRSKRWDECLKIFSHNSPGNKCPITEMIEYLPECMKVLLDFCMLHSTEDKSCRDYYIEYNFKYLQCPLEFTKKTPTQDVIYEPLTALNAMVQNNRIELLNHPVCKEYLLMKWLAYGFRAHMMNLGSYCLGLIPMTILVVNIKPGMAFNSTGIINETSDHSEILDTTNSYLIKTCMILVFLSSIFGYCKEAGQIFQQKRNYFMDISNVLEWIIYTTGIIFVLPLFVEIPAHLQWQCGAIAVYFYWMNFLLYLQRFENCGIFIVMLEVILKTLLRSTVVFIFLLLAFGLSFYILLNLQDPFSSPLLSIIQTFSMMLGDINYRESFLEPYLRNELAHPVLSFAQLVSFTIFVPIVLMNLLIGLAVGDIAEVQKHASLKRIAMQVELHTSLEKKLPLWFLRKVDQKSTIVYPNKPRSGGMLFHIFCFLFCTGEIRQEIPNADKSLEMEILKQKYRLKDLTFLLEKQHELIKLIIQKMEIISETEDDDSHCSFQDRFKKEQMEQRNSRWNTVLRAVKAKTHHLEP

| Structure (SMILES) | pIC50 (human TRPA1) | pIC50 (human TRPV1) | pIC50 (human TRPV3) | pIC50 (human TRPV4) | pIC50 (human TRPM8) | pulmonary eosinophilia [1] |
| --- | --- | --- | --- | --- | --- | --- |
| CC(C)c1sc2c(c1CC(=O)Nc1nc(-c3ccc(C(F)(F)F)c(F)c3)cs1)c(=O)n(C)c(=O)n2C [Compound 46] | 7.38 | < 5.00 | < 5.00 | < 5.00 | < 6.00 |  |
| Cn1c(=O)c2c(CC(=O)Nc3nc(-c4cc(F)c(OCC(F)(F)F)c(Cl)c4)cs3)coc2n(C)c1=O [Compound 60] | 8.45 | < 5.00 | < 5.00 | < 6.00 | < 5.00 |  |
| Cc1oc2c(c1CC(=O)Nc1nc(-c3ccc(Cl)c(C(F)(F)F)c3)cs1)c(=O)n(C)c(=O)n2C [Compound 71] | 8.50 | < 5.00 | < 6.00 | < 5.00 | < 5.00 |  |
| Cn1c(=O)c2c(CC(=O)Nc3nc(-c4ccc(C(F)(F)F)cc4F)cs3)cccc2n(C)c1=O [Compound 19] | 7.58 | < 5.00 | < 6.00 | 5.79 | < 5.00 |  |
| Cn1c(=O)c2c(CC(=O)Nc3nc(-c4ccc(F)c(C(F)(F)F)c4F)cs3)nsc2n(C)c1=O [Compound 77] | 8.25 | < 5.00 | 5.75 | 6.26 | < 5.00 |  |
| Cn1c(=O)c2c(CC(=O)Nc3nc(-c4ccc(F)c(C(F)(F)F)c4)cs3)coc2n(C)c1=O [Compound 58] | 7.93 | < 5.00 | < 6.00 | < 6.00 | < 5.00 |  |
| Cn1c(=O)c2c(ccn2CC(=O)Nc2nc(-c3ccc(OC(F)(F)F)cc3)cs2)n(C)c1=O [Compound 34] | 7.41 | < 5.00 | < 5.00 | < 5.00 | < 5.00 |  |
| CC(C)c1ccc(-c2csc(NC(=O)Cc3cccc4c3c(=O)n(C)c(=O)n4C)n2)cc1 [Compound 14] | 7.22 | < 5.00 | < 6.00 | < 6.00 | < 5.00 |  |
| Cn1c(=O)c2c(CC(=O)Nc3nc(-c4ccc(C(C)(C)C)cc4)cs3)cccc2n(C)c1=O [Compound 12] | 7.29 | < 5.00 | < 5.00 | < 6.00 | < 5.00 |  |
| Cn1c(=O)c2c(CC(=O)Nc3nc(-c4cc(Cl)c(OCC(F)(F)F)c(Cl)c4)cs3)coc2n(C)c1=O [Compound 57] | 8.84 | < 5.00 | < 5.00 | < 6.00 | < 5.00 |  |
| Cn1c(=O)c2c(CC(=O)Nc3nc(-c4cccc(Cl)c4)cs3)cccc2n(C)c1=O [Compound 9] | 6.99 | < 5.00 | < 6.00 | < 6.00 | < 5.00 |  |
| CC(C)CCOc1ccc(-c2csc(NC(=O)Cc3cccc4c3c(=O)n(C)c(=O)n4C)n2)cc1 [Compound 22] | 7.10 | < 5.00 | < 5.00 | < 6.00 | < 5.00 |  |
| Cn1c(=O)c2c(CC(=O)Nc3nc(-c4ccc(F)c(C(F)(F)F)c4F)cs3)onc2n(C)c1=O [Compound 92] |  | < 5.00 | < 6.00 | < 6.00 | < 5.00 | significant inhibition |
| Cc1oc2c(c1CC(=O)Nc1nc(-c3ccc(F)c(C(F)(F)F)c3)cs1)c(=O)n(C)c(=O)n2C [Compound 69] | 8.15 | < 5.00 | < 6.00 | < 6.00 | < 5.00 |  |
| Cn1c(=O)c2c(CC(=O)Nc3ccn(-c4ccc(Cl)cc4)n3)cccc2n(C)c1=O [Compound 8] | 7.26 | < 5.00 | < 5.00 | < 6.00 | < 5.00 |  |
| Cc1oc2c(c1CC(=O)Nc1nc(-c3ccc(Cl)c(OC(F)(F)F)c3)cs1)c(=O)n(C)c(=O)n2C [Compound 63] | 8.04 | < 5.00 | < 6.00 | < 5.00 | < 5.00 |  |
| Cn1c(=O)c2c(CC(=O)Nc3nc(-c4cc(F)cc(C(F)(F)F)c4)cs3)coc2n(C)c1=O [Compound 55] | 8.67 | < 5.00 | < 6.00 | < 6.00 | < 5.00 |  |
| Cn1c(=O)c2c(CC(=O)Nc3nc(-c4ccc(I)cc4)cs3)cccc2n(C)c1=O [Compound 5] | 7.18 | < 5.00 | < 5.00 | < 6.00 | < 5.00 |  |

Second part, led by results:

| pIC50 (human TRPA1) | pIC50 (human TRPV1) | pIC50 (human TRPV3) | pIC50 (human TRPV4) | pIC50 (human TRPM8) | Structure (SMILES) | pulmonary eosinophilia [1] |
| --- | --- | --- | --- | --- | --- | --- |
| 8.48 | < 5.00 | < 5.00 | < 5.00 | < 5.00 | Cc1oc2c(c1CC(=O)Nc1nc(-c3cc(Cl)c(OCC(C)C)c(Cl)c3)cs1)c(=O)n(C)c(=O)n2C [Compound 75] |  |
| 7.32 | < 5.00 | < 6.00 | 5.55 | < 5.00 | Cn1c(=O)c2c(CC(=O)Nc3nc(-c4ccc(F)cc4F)cs3)cccc2n(C)c1=O [Compound 13] |  |
| 7.94 | < 5.00 | < 6.00 | < 5.00 | < 5.00 | Cn1c(=O)c2c(CC(=O)Nc3nc(-c4ccc(OC(F)(F)F)c(F)c4)cs3)cccc2n(C)c1=O [Compound 29] |  |
| 8.44 | < 5.00 | < 5.00 | < 5.00 | < 5.00 | Cc1oc2c(c1CC(=O)Nc1nc(-c3cc(F)c(OCC(C)(C)C)c(F)c3)cs1)c(=O)n(C)c(=O)n2C [Compound 66] |  |
| 7.58 | < 5.00 | < 6.00 | < 6.00 | < 5.00 | Cn1c(=O)c2c(cnn2CC(=O)Nc2nc(-c3ccc(OCC(C)(C)C)c(F)c3)cs2)n(C)c1=O [Compound 45] |  |
| 7.71 | < 5.00 | < 5.00 | 5.70 | < 5.00 | Cn1c(=O)c2c(CC(=O)Nc3nc(-c4ccc(F)c(C(F)(F)F)c4F)cs3)ccnc2n(C)c1=O [Compound 87] |  |
| 7.94 | < 5.00 | < 6.00 | 6.80 | < 5.00 | Cn1c(=O)c2c(CC(=O)Nc3nc(-c4ccc(OC(F)(F)F)c(F)c4)cs3)ccnc2n(C)c1=O [Compound 88] |  |
| 7.76 | < 5.00 | < 5.00 | < 5.00 | < 5.00 | Cn1c(=O)c2c(CC(=O)Nc3nc(-c4ccc(F)c(C(F)(F)F)c4F)cs3)cccc2n(C)c1=O [Compound 31] |  |
